In patent US10583112B2, “Benzo[b]furans as bromodomain inhibitors” (GlaxoSmithKline Intellectual Property (No. 2) Limited, priority 2016, dated 2020):

Target: T1, BRD4 BD2 (Homo sapiens, UniProt O60885, Y97A)
T1 construct: BRD4 (1-477) (Y97A) and (Y390A); made in house; host or cells: E. coli (pET15b vector)
Assay: BRD4 BD2 TR-FRET competition assay
Assay type: binding
Settings: mean where stated, n given; read-out: pIC50 in the BRD4 BD2 TR-FRET assay (converted)
Method: Bromodomain binding was assessed utilising a time resolved fluorescent resonance energy transfer (TR-FRET) competition assay. […] Europium chelate, conjugated to an anti-6*His antibody, was utilised as the donor fluorophore in the TR-FRET pair.
In order to generate a TR-FRET signal, donor fluorophore is excited by a laser at λ337 nm, which subsequently leads to emission at λ618 nm.
In order to monitor differential binding to either BD1 or BD2, single residue mutations of key tyrosines to alanine were made in the acetyl lysine binding pockets. To validate this approach, a double residue mutant tandem domain protein was produced for each of the BET family members.
Final purification was completed by Superdex 200 prep grade size exclusion column. Purified protein was stored at −80° C. in 20 mM HEPES pH 7.5 and 100 mM NaCl.
All assay components were dissolved in an assay buffer composing of 50 mM HEPES pH7.4, 50 mM NaCl, 5% Glycerol, 1 mM DTT and 1 mM CHAPS. […] An equal volume of 3 nM of anti-6*His Europium chelate was added to all wells, followed by a further 30 minute incubation at room temperature. TR-FRET was detected using a Perkin Elmer Multimode plate reader, by exciting the donor fluorophore at λ337 nm and subsequently, after a delay of 50 μsecs, measuring emission of the donor and acceptor fluorophores at λ615 nm and λ665 nm, respectively.
cA four parameter curve fit of the following form was then applied: y=a+((b−a)/(1+(10^x/10^c)^d) • Where ‘a’ is the minimum, ‘b’ is the Hill slope, ‘c’ is the pIC50 and ‘d’ is the maximum.

Compound CNC(=O)c1cc(C(=O)N[C@@H]2C[C@H]2CCO)cc2c1O[C@@H](CF)[C@@H]2c1ccccc1 (mixture of isomers) [Example 196, (2R,3R)-2-(fluoromethyl)-N^5-((trans)-2-(2-hydroxyethyl)cyclopropyl)-N^7-methyl-3-phenyl-2,3-dihydrobenzofuran-5,7-dicarboxamide (diastereomeric mixture)] has an IC50 of 1 to 100 µM.
Work on CNC(=O)c1cc(C(=O)N[C@H]2C[C@@H]2CCO)cc2c1O[C@@H](CF)[C@@H]2c1ccccc1 (mixture of isomers) [Example 197, 2R,3R)-2-(fluoromethyl)-N^5-((trans)-2-(2-hydroxyethyl)cyclopropyl)-N^7-methyl-3-phenyl-2,3-dihydrobenzofuran-5,7-dicarboxamide (diastereomeric mixture)] yielded an IC50 of 1 to 100 µM.
CNC(=O)c1cc(C(=O)NCCOC)cc2c1O[C@H](CO)[C@H]2c1cccc(OC)c1 (relative stereo) [Example 34, (2S*,3S*)-2-(Hydroxymethyl)-N^5-(2-methoxyethyl)-3-(3-methoxyphenyl)-N^7-methyl-2,3-dihydrobenzofuran-5,7-dicarboxamide] showed an IC50 of 1 to 100 µM.
Work on CNC(=O)c1cc(C(=O)NCCn2cnnc2)cc2c1O[C@H](CF)[C@H]2c1ccccc1 (relative stereo) [Example 133, (Trans)-N^5-(2-(4H-1,2,4-triazol-4-yl)ethyl)-2-(fluoromethyl)-N^7-methyl-3-phenyl-2,3-dihydrobenzofuran-5,7-dicarboxamide] yielded an IC50 of 1 to 100 µM.
With CNC(=O)c1cc(C(=O)NCCCC2CCNCC2(F)F)cc2c1O[C@@H](C)[C@@H]2c1ccccc1 (single isomer, unassigned) [Example 198, (2S,3R)-N5-(3-((S*)-3,3-difluoropiperidin-4-yl)propyl)-N7,2-dimethyl-3-phenyl-2,3-dihydrobenzofuran-5,7-dicarboxamide] the IC50 was 1 to 100 µM.
Compound CNC(=O)c1cc(C(=O)NCC(C)O)cc2c1O[C@H](C)[C@H]2c1ccccc1 (stereo partly drawn) [Example 6, (2R,3S)—N^5-(2-Hydroxypropyl)-N^7,2-dimethyl-3-phenyl-2,3-dihydrobenzofuran-5,7-dicarboxamide] has an IC50 of 1 to 100 µM.
With CNC(=O)c1cc(C(=O)NCC(C)O)cc2c1O[C@@H](C)[C@H]2c1ccccc1 (stereo partly drawn) [Example 7, (2S,3S)—N^5-(2-hydroxypropyl)-N^7,2-dimethyl-3-phenyl-2,3-dihydrobenzofuran-5,7-dicarboxamide] the IC50 was 1 to 100 µM.
Work on CNC(=O)c1cc(C(=O)N[C@H]2[C@@H]3COC[C@@H]32)cc2c1O[C@H](C)[C@H]2c1cccc(OCCO)c1 [Example 85, (2R,3S)—N^5-((1R,5S,6R)-3-Oxabicyclo[3.1.0]hexan-6-yl)-3-(3-(2-hydroxyethoxy)phenyl)-N^7,2-dimethyl-2,3-dihydrobenzofuran-5,7-dicarboxamide] yielded an IC50 of 1 to 100 µM.
In the case of CNC(=O)c1cc(C(=O)NC)c2c(c1)[C@@H](c1ccccc1)[C@H](C)O2 [Example 100, (2S,3R)-N^5,N^7,2-trimethyl-3-phenyl-2,3-dihydrobenzofuran-5,7-dicarboxamide], the IC50 is reported as 1 to 100 µM.
Work on CCNC(=O)c1cc(C(=O)NC)c2c(c1)[C@@H](c1ccccc1)[C@H](C)O2 [Example 101, (2S,3R)-N^5-ethyl-N^7,2-dimethyl-3-phenyl-2,3-dihydrobenzofuran-5,7-dicarboxamide] yielded an IC50 of 1 to 100 µM.
CNC(=O)c1cc(C(=O)NC2CC2)cc2c1O[C@@H](C)[C@@H]2c1ccccc1 [Example 102, (2S,3R)-N^5-cyclopropyl-N^7,2-dimethyl-3-phenyl-2,3-dihydrobenzofuran-5,7-dicarboxamide] showed an IC50 of 1 to 100 µM.
Work on CNC(=O)c1cc(C(=O)NC2CC2)cc2c1O[C@H](C)[C@@H]2c1ccccc1 [Example 103, (2R,3R)-N^5-cyclopropyl-N^7,2-dimethyl-3-phenyl-2,3-dihydrobenzofuran-5,7-dicarboxamide] yielded an IC50 of 1 to 100 µM.
Work on CNC(=O)c1cc(C(=O)NC2CC2)cc2c1O[C@@H](CO)[C@@H]2c1ccccc1 [Example 104, (2R,3R)-N^5-cyclopropyl-2-(hydroxymethyl)-N^7-methyl-3-phenyl-2,3-dihydrobenzofuran-5,7-dicarboxamide] yielded an IC50 of 1 to 100 µM.
CNC(=O)c1cc(C(=O)NCC(C)O)cc2c1O[C@@H](C)[C@@H]2c1ccccc1 (stereo partly drawn) [Example 107, (2S,3R)-N^5-(2-hydroxypropyl)-N^7,2-dimethyl-3-phenyl-2,3-dihydrobenzofuran-5,7-dicarboxamide] showed an IC50 of 1 to 100 µM.
Compound CNC(=O)c1cc(C(=O)NC2C[C@H]2CCO)cc2c1O[C@H](CF)[C@H]2c1ccccc1 (stereo partly drawn) [Example 132, (2S,3S)-2-(Fluoromethyl)-N^5-((trans)-2-(2-hydroxyethyl)cyclopropyl)-N^7-methyl-3-phenyl-2,3-dihydrobenzofuran-5,7-dicarboxamide] has an IC50 of 1 to 100 µM.
With CCC(=O)N1C[C@@H]2[C@H](C1)[C@H]2NC(=O)c1cc(C(=O)NC)c2c(c1)[C@@H](c1ccccc1)[C@H](CF)O2 [Example 164, (2R,3R)-2-(Fluoromethyl)-N^7-methyl-3-phenyl-N^5-((1R,5S,6s)-3-propionyl-3-azabicyclo[3.1.0]hexan-6-yl)-2,3-dihydrobenzofuran-5,7-dicarboxamide] the IC50 was 1 to 100 µM.
Work on CNC(=O)c1cc(C(=O)Nc2nncn2C)cc2c1O[C@H](CF)[C@H]2c1ccccc1 [Example 172] yielded an IC50 of 1 to 100 µM.
In the case of CNC(=O)c1cc(C(=O)Nc2nnn(C)n2)cc2c1O[C@H](CF)[C@H]2c1ccccc1 [Example 174, (2S,3S)-2-(Fluoromethyl)-N^7-methyl-N^5-(2-methyl-2H-tetrazol-5-yl)-3-phenyl-2,3-dihydrobenzofuran-5,7-dicarboxamide], the IC50 is reported as 1 to 100 µM.
With CNC(=O)c1cc(C(=O)N[C@H]2[C@@H]3COC[C@@H]32)cc2c1O[C@@H](C)[C@@H]2c1cccc(OCCO)c1 [Example 181, (2S,3R)-N^5-((1R,5S,6r)-3-oxabicyclo[3.1.0]hexan-6-yl)-3-(3-(2-hydroxyethoxy)phenyl)-N^7,2-dimethyl-2,3-dihydrobenzofuran-5,7-dicarboxamide] the IC50 was 1 to 100 µM.
Compound CNC(=O)c1cc(C(=O)NCCc2cccnc2)cc2c1O[C@@H](C)[C@@H]2c1cccc(OCCO)c1 [Example 183, (2S,3R)-3-(3-(2-hydroxyethoxy)phenyl)-N^7,2-dimethyl-N^5-(2-(pyridin-3-yl)ethyl)-2,3-dihydrobenzofuran-5,7-dicarboxamide] has an IC50 of 1 to 100 µM.
CNC(=O)c1cc(C(=O)N[C@@H]2C[C@H]2CO)cc2c1O[C@@H](CF)[C@@H]2c1ccccc1 [Example 184, (2R,3R)-2-(fluoromethyl)-N^5-((1R,2R)-2-(hydroxymethyl)cyclopropyl)-N^7-methyl-3-phenyl-2,3-dihydrobenzofuran-5,7-dicarboxamide] gave an IC50 of 1 to 100 µM.
CNC(=O)c1cc(C(=O)Nc2cn[nH]c2)cc2c1O[C@@H](CF)[C@@H]2c1ccccc1 [Example 186, (2R,3R)-2-(fluoromethyl)-N^7-methyl-3-phenyl-N^5-(1H-pyrazol-4-yl)-2,3-dihydrobenzofuran-5,7-dicarboxamide] gave an IC50 of 1 to 100 µM.
In the case of CNC(=O)c1cc(C(=O)Nc2cnn(C)c2)cc2c1O[C@@H](CF)[C@@H]2c1ccccc1 [Example 187, (2R,3R)-2-(fluoromethyl)-N^7-methyl-N^5-(1-methyl-1H-pyrazol-4-yl)-3-phenyl-2,3-dihydrobenzofuran-5,7-dicarboxamide], the IC50 is reported as 1 to 100 µM.
With CNC(=O)c1cc(C(=O)NCCc2cnn(C)c2)cc2c1O[C@@H](C)[C@@H]2c1ccccc1 [Example 188, (2S,3R)-N^7,2-dimethyl-N^5-(2-(1-methyl-1H-pyrazol-4-yl)ethyl)-3-phenyl-2,3-dihydrobenzofuran-5,7-dicarboxamide] the IC50 was 1 to 100 µM.
For CNC(=O)c1cc(C(=O)N[C@H]2[C@@H]3CN(C(C)=O)C[C@@H]32)cc2c1O[C@@H](C)[C@@H]2c1ccccc1 [Example 189, (2S,3R)-N^5-((1R,5S,6s)-3-acetyl-3-azabicyclo[3.1.0]hexan-6-yl)-N^7,2-dimethyl-3-phenyl-2,3-dihydrobenzofuran-5,7-dicarboxamide], the IC50 was 1 to 100 µM.
CNC(=O)c1cc(C(=O)N[C@H]2[C@@H]3CN(C(C)=O)C[C@@H]32)cc2c1O[C@@H](CF)[C@@H]2c1ccccc1 [Example 190, (2R,3R)-N^5-((1R,5S,6s)-3-acetyl-3-azabicyclo[3.1.0]hexan-6-yl)-2-(fluoromethyl)-N^7-methyl-3-phenyl-2,3-dihydrobenzofuran-5,7-dicarboxamide] showed an IC50 of 1 to 100 µM.
CNC(=O)c1cc(C(=O)Nc2ncn(C)n2)cc2c1O[C@@H](CF)[C@@H]2c1ccccc1 [Example 192, (2R,3R)-2-(fluoromethyl)-N^7-methyl-N^5-(1-methyl-1H-1,2,4-triazol-3-yl)-3-phenyl-2,3-dihydrobenzofuran-5,7-dicarboxamide] showed an IC50 of 1 to 100 µM.
CNC(=O)c1cc(C(=O)Nc2ccnnc2)cc2c1O[C@@H](CF)[C@@H]2c1ccccc1 [Example 193, (2R,3R)-2-(fluoromethyl)-N^7-methyl-3-phenyl-N^5-(pyridazin-4-yl)-2,3-dihydrobenzofuran-5,7-dicarboxamide] gave an IC50 of 1 to 100 µM.
